Measurements taken from PubChem BioAssay (NCI).
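Assay format: 96-well plates, 48-hour exposure. At the GI50, growth is halved. TGI: concentration producing complete growth inhibition.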

Assays:
Assay in all cases: NCI anticancer screen, dose series, 48 h; in the data active means GI50 below about 0.43 µM; inactive means the rest
786-0 renal = test system: 786-0 renal
A498 renal = test system: A498 renal
A549 NSCLC = test system: A549 NSCLC
ACHN renal = test system: ACHN renal
BT-549 breast = test system: BT-549 breast
CAKI-1 renal = test system: CAKI-1 renal
CCRF-CEM leukemia = test system: CCRF-CEM leukemia
COLO 205 colon = test system: COLO 205 colon
DU-145 prostate = test system: DU-145 prostate
EKVX NSCLC = test system: EKVX NSCLC
HCC-2998 colon = test system: HCC-2998 colon
HCT-116 colon = test system: HCT-116 colon
HCT-15 colon = test system: HCT-15 colon
HL-60(TB) leukemia = test system: HL-60(TB) leukemia
HOP-62 NSCLC = test system: HOP-62 NSCLC
HOP-92 NSCLC = test system: HOP-92 NSCLC
HS 578T breast = test system: HS 578T breast
HT29 colon = test system: HT29 colon
IGROV1 ovarian = test system: IGROV1 ovarian
K-562 leukemia = test system: K-562 leukemia
KM12 colon = test system: KM12 colon
LOX IMVI melanoma = test system: LOX IMVI melanoma
M14 melanoma = test system: M14 melanoma
MALME-3M melanoma = test system: MALME-3M melanoma
MCF7 breast = test system: MCF7 breast
MDA-MB-231 breast = test system: MDA-MB-231 breast
MOLT-4 leukemia = test system: MOLT-4 leukemia
NCI-H226 lung = test system: NCI-H226 lung
NCI-H23 lung = test system: NCI-H23 lung
NCI-H460 lung = test system: NCI-H460 lung
NCI-H522 lung = test system: NCI-H522 lung
NCI/ADR-RES ovarian = test system: NCI/ADR-RES ovarian
OVCAR-3 ovarian = test system: OVCAR-3 ovarian
OVCAR-4 ovarian = test system: OVCAR-4 ovarian
OVCAR-5 ovarian = test system: OVCAR-5 ovarian
OVCAR-8 ovarian = test system: OVCAR-8 ovarian
PC-3 prostate = test system: PC-3 prostate
RPMI-8226 leukemia = test system: RPMI-8226 leukemia
RXF 393 renal = test system: RXF 393 renal
SF-268 CNS = test system: SF-268 CNS
SF-295 CNS = test system: SF-295 CNS
SF-539 CNS = test system: SF-539 CNS
SK-MEL-2 melanoma = test system: SK-MEL-2 melanoma
SK-MEL-28 melanoma = test system: SK-MEL-28 melanoma
SK-MEL-5 melanoma = test system: SK-MEL-5 melanoma
SK-OV-3 ovarian = test system: SK-OV-3 ovarian
SN12C renal = test system: SN12C renal
SNB-19 CNS = test system: SNB-19 CNS
SNB-75 CNS = test system: SNB-75 CNS
SR leukemia = test system: SR leukemia
SW-620 colon = test system: SW-620 colon
T-47D breast = test system: T-47D breast
TK-10 renal = test system: TK-10 renal
U251 CNS = test system: U251 CNS
UACC-257 melanoma = test system: UACC-257 melanoma
UACC-62 melanoma = test system: UACC-62 melanoma
UO-31 renal = test system: UO-31 renal

COc1cc(C(=O)N2CCN(c3ccccc3)CC2)c2ccccc2n1
115 nM: TGI (SF-295 CNS)
805 nM: TGI (M14 melanoma)
> 83700 nM: TGI (UO-31 renal)
> 52000 nM: TGI (LOX IMVI melanoma)
4100 nM: TGI (NCI-H460 lung)
486 nM: TGI (HCC-2998 colon)
29200 nM: TGI (HOP-92 NSCLC)
68.7 nM: TGI (OVCAR-3 ovarian)
387 nM: TGI (HS 578T breast)
659 nM: TGI (COLO 205 colon)
9420 nM: TGI (SK-MEL-5 melanoma)
10300 nM: TGI (HT29 colon)
> 25200 nM: TGI (MDA-MB-231 breast)
active: GI50 (786-0 renal) 127 nM | GI50 (A498 renal) 22.6 nM | GI50 (A549 NSCLC) 101 nM | GI50 (ACHN renal) 382 nM | GI50 (CAKI-1 renal) 43 nM | GI50 (CCRF-CEM leukemia) 128 nM | GI50 (COLO 205 colon) 62.3 nM | GI50 (DU-145 prostate) 64.8 nM | GI50 (EKVX NSCLC) 243 nM | GI50 (HCC-2998 colon) 69.6 nM | GI50 (HCT-116 colon) 55 nM | GI50 (HCT-15 colon) 149 nM | GI50 (HL-60(TB) leukemia) 110 nM | GI50 (HOP-62 NSCLC) 119 nM | GI50 (HS 578T breast) 38.7 nM | GI50 (HT29 colon) 41 nM | GI50 (IGROV1 ovarian) 96.5 nM | GI50 (K-562 leukemia) 78.2 nM | GI50 (KM12 colon) 41.2 nM | GI50 (LOX IMVI melanoma) 86 nM | GI50 (M14 melanoma) 58.2 nM | GI50 (MALME-3M melanoma) 48.4 nM | GI50 (MCF7 breast) 38.6 nM | GI50 (MDA-MB-231 breast) 301 nM | GI50 (NCI-H23 lung) 225 nM | GI50 (NCI-H460 lung) 48.1 nM | GI50 (NCI-H522 lung) 32.4 nM | GI50 (NCI/ADR-RES ovarian) 36.1 nM | GI50 (OVCAR-3 ovarian) 24.1 nM | GI50 (OVCAR-8 ovarian) 248 nM | GI50 (PC-3 prostate) 84.6 nM | GI50 (RPMI-8226 leukemia) 247 nM | GI50 (RXF 393 renal) 92.7 nM | GI50 (SF-268 CNS) 200 nM | GI50 (SF-295 CNS) 27.6 nM | GI50 (SF-539 CNS) 97.3 nM | GI50 (SK-MEL-5 melanoma) 54.1 nM | GI50 (SK-OV-3 ovarian) 99.3 nM | GI50 (SNB-75 CNS) 40.2 nM | GI50 (SR leukemia) 53.7 nM | GI50 (SW-620 colon) 52.6 nM | GI50 (T-47D breast) 53 nM | GI50 (TK-10 renal) 287 nM | GI50 (U251 CNS) 95.5 nM | GI50 (UACC-257 melanoma) 108 nM | GI50 (UACC-62 melanoma) 48.2 nM | GI50 (UO-31 renal) 87.5 nM
inactive: GI50 (BT-549 breast) 475 nM | GI50 (HOP-92 NSCLC) 1470 nM | GI50 (MOLT-4 leukemia) 863 nM | GI50 (NCI-H226 lung) 12700 nM | GI50 (OVCAR-4 ovarian) 4270 nM | GI50 (OVCAR-5 ovarian) 586 nM | GI50 (SK-MEL-2 melanoma) 432 nM | GI50 (SK-MEL-28 melanoma) > 100000 nM | GI50 (SN12C renal) 485 nM | GI50 (SNB-19 CNS) 929 nM
176 nM: TGI (NCI/ADR-RES ovarian)
28100 nM: TGI (HCT-116 colon)
5190 nM: TGI (KM12 colon)
> 100000 nM: TGI (786-0 renal) | TGI (A549 NSCLC) | TGI (ACHN renal) | TGI (BT-549 breast) | TGI (CCRF-CEM leukemia) | TGI (EKVX NSCLC) | TGI (HCT-15 colon) | TGI (HOP-62 NSCLC) | TGI (IGROV1 ovarian) | TGI (K-562 leukemia) | TGI (MALME-3M melanoma) | TGI (MCF7 breast) | TGI (MOLT-4 leukemia) | TGI (NCI-H226 lung) | TGI (NCI-H23 lung) | TGI (OVCAR-4 ovarian) | TGI (OVCAR-5 ovarian) | TGI (PC-3 prostate) | TGI (RPMI-8226 leukemia) | TGI (RXF 393 renal) | TGI (SF-268 CNS) | TGI (SK-MEL-2 melanoma) | TGI (SK-MEL-28 melanoma) | TGI (SK-OV-3 ovarian) | TGI (SN12C renal) | TGI (SNB-19 CNS) | TGI (SR leukemia) | TGI (SW-620 colon) | TGI (T-47D breast) | TGI (TK-10 renal) | TGI (U251 CNS) | TGI (UACC-257 melanoma) | TGI (UACC-62 melanoma)
357 nM: TGI (A498 renal)
468 nM: TGI (DU-145 prostate)
> 23800 nM: TGI (OVCAR-8 ovarian)
475 nM: TGI (NCI-H522 lung)
> 22500 nM: TGI (CAKI-1 renal)
